From US10160748B2 (AbbVie Inc., priority 2015, dated 2018)

These compounds were tested against TNFα trimer (Homo sapiens, UniProt P01375) (assay: TNFα FP Competitive Binding Assay). Conditions: FP binding assay; 20 nM TNFα trimer, 1 nM OregonGreen488 probe; read-out: TNF IC50.
How it was run: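 Fluorescence polarization competition: 20 nM TNFα trimer with 1 nM fluorescein-labelled probe in HEPES/NaCl/EDTA/Triton X-100 buffer, compound in 12-point 1:3 dilutions (final top 338 μM or 100 μM). Incubated 18-24 h, background-subtracted mP read, variable-slope dose-response fitting.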

Chain of TNFα trimer (P01375 77-233 limits assumed): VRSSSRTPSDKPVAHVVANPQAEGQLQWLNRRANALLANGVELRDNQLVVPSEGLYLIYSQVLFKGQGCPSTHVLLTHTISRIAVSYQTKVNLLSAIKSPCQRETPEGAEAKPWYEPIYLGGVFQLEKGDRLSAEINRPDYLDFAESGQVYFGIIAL

SMILES	IC50 [nM]
Cc1ccc(Cl)c(Cn2c3nc(-c4cnc(C(C)(C)O)nc4C)ccc3c(=O)n2C)c1 [Example 99, 1-(2-Chloro-5-methylbenzyl)-6-(2-(2-hydroxypropan-2-yl)-4-methylpyrimidin-5-yl)-2-methyl-1,2-dihydro-3H-pyrazolo[3,4-b]pyridin-3-one]	< 1000
CC(=O)N1CCN(c2ncc(-c3ccc4c(=O)n(C)n(Cc5cc(Cn6ccc(=O)[nH]6)ccc5OC(F)F)c4c3)cn2)C[C@H]1C [Example 101, (R)-6-(2-(4-Acetyl-3-methylpiperazin-1-yl)pyrimidin-5-yl)-1-(2-(difluoromethoxy)-5-((3-oxo-2,3-dihydro-H-pyrazol-1-yl)methyl)benzyl)-2-methyl-1,2-dihydro-3H-indazol-3-one]	1000 to 10000
CC(=O)N1CCN(c2ncc(-c3ccc4c(=O)n(C)n(Cc5cc(COc6ccn[nH]6)ccc5OC(F)F)c4c3)cn2)C[C@H]1C [Example 102]	< 1000
Cc1ccc(Cl)c(Cn2c3cc(-c4cnc(N5CCN6C(=O)NC[C@H]6C5)nc4)ccc3c(=O)n2C)c1 [Example 103, (S)-7-(5-(1(2-Chloro-5-methylbenzyl)-2-methyl-3-oxo-2,3-dihydro-1H-indazol-6-yl)pyrimidin-2-yl)hexahydroimidazo[1,5-a]pyrazin-3(2H)-one]	< 1000
CC(=O)N1CCN(c2ncc(-c3ccc4c(=O)n(C)n(Cc5nc(C)ccc5Cl)c4c3)cn2)C[C@H]1C [Example 105, (R)-6-(2-(4-Acetyl-3-methylpiperazin-1-yl)pyrimidin-5-yl)-1-((3-chloro-6-methylpyridin-2-yl)methyl)-2-methyl-1,2-dihydro-3H-indazol-3-one]	< 1000
CC(=O)N1CCN(c2ncc(-c3ccc4c(=O)n(C)n(Cc5cc(Cc6cn[nH]c6)ccc5OC(F)F)c4c3)cn2)C[C@H]1C [Example 110, (R)-1-(5-((1H-Pyrazol-4-yl)methyl)-2-(difluoromethoxy)benzyl)-6-(2-(4-acetyl-3-methylpiperazin-1-yl)pyrimidin-5-yl)-2-methyl-1H-indazol-3(2H)-one]	< 1000
Cn1c(=O)c2ccc(-c3cnc(N4CCN5C(=O)NC[C@@H]5C4)nc3)cc2n1Cc1cc(Cn2cncn2)ccc1OC(F)F [Example 113, (R)-7-(5-(1-(5-((1H-1,2,4-Triazol-1-yl)methyl)-2-(difluoromethoxy)benzyl)-2-methyl-3-oxo-2,3-dihydro-1H-indazol-6-yl)pyrimidin-2-yl)hexahydroimidazo[1,5-a]pyrazin-3(2H)-one]	< 1000
CC(=O)N1CCN(c2ncc(-c3ccc4c(=O)n(C)n(Cc5cc(CO)ccc5C(F)(F)F)c4c3)cn2)CC1 [Example 115, 6-(2-(4-Acetylpiperazin-1-yl)pyrimidin-5-yl)-1-(5-(hydroxymethyl)-2-(trifluoromethyl)benzyl)-2-methyl-1H-indazol-3(2H)-one]	< 1000
Cc1cccc(C(C)n2c3cc(-c4cnc(N5CCN(C(=O)CO)[C@H](C)C5)nc4)ccc3c(=O)n2C)c1 (stereo partly drawn) [Example 116, 6-(2-((R)-4-(2-hydroxyacetyl)-3-methylpiperazin-1-yl)pyrimidin-5-yl)-2-methyl-1-(1-(m-tolyl)ethyl)-1H-indazol-3(2H)-one]	< 1000
CC(=O)N1CCN(c2ncc(-c3ccc4c(=O)n(C)n(Cc5cn(C(C)=O)cc5C(F)(F)F)c4c3)cn2)C[C@H]1C [Example 119, (R)-6-(2-(4-Acetyl-3-methylpiperazin-1-yl)pyrimidin-5-yl)-1-((1-acetyl-4-(trifluoromethyl)-1H-pyrrol-3-yl)methyl)-2-methyl-1H-indazol-3(2H)-one]	< 1000
C[C@@H]1CN(C(=O)CO)CCN1c1ncc(-c2ccc3c(=O)n(C)n(Cc4ccccc4OC(F)F)c3c2F)cn1 [Example 121, (R)-1-(2-(Difluoromethoxy)benzyl)-7-fluoro-6-(2-(4-(2-hydroxyacetyl)-2-methylpiperazin-1-yl)pyrimidin-5-yl)-2-methyl-1H-indazol-3(2H)-one]	< 1000
Cn1cc(Cn2c3cc(-c4cnc(N5CCN6C(=O)NC[C@H]6C5)nc4)ccc3c(=O)n2C)c(C(F)(F)F)c1 [Example 123, (S)-7-(5-(2-Methyl-1-((1-methyl-4-(trifluoromethyl)-1H-pyrrol-3-yl)methyl)-3-oxo-2,3-dihydro-1H-indazol-6-yl)pyrimidin-2-yl)hexahydroimidazo[1,5-a]pyrazin-3(2H)-one]	< 1000
CC(=O)N1CCN(c2ncc(-c3ccc4c(=O)n(C)n(Cc5cc(CN6CCN(C)C6=O)ccc5OC(F)F)c4c3)cn2)C[C@H]1C [Example #129*, (R)-6-(2-(4-Acetyl-3-methylpiperazin-1-yl)pyrimidin-5-yl)-1-(2-(difluoromethoxy)-5-((3-methyl-2-oxoimidazolidin-1-yl)methyl)benzyl)-2-methyl-1H-indazol-3(2H)-one]	1000 to 10000

Further lines, results first:

IC50 [nM]	SMILES
1000 to 10000	Cn1c(=O)c2cc(F)c(-c3cnc(C(C)(C)O)nc3)cc2n1Cc1cc(CC#N)ccc1OC(F)F [Example 100, 2-(4-(Difluoromethoxy)-3-((5-fluoro-6-(2-(2-hydroxypropan-2-yl)pyrimidin-5-yl)-2-methyl-3-oxo-2,3-dihydro-1H-indazol-1-yl)methyl)phenyl)acetonitrile]
< 1000	Cn1c(=O)c2ccc(-c3cnc(C(C)(C)O)nc3)cc2n1Cc1cc(Cn2cncn2)ccc1OC(F)F [Example 104]
1000 to 10000	CN1CCC(Nc2ccc(Cl)c(Cn3c4cc(-c5cnc(C(C)(C)O)nc5)ccc4c(=O)n3C)c2)C1=O (centres unmarked) [Example 109, 1-(2-Chloro-5-((1-methyl-2-oxopyrrolidin-3-yl)amino)benzyl)-6-(2-(2-hydroxypropan-2-yl)pyrimidin-5-yl)-2-methyl-1H-indazol-3(2H)-one]
< 1000	Cn1c(=O)c2ccc(-c3cnc(C(C)(C)O)nc3)cc2n1Cc1cc(Cc2cn[nH]c2)ccc1OC(F)F [Example 111, 1-(5-((1H-Pyrazol-4-yl)methyl)-2-(difluoromethoxy)benzyl)-6-(2-(2-hydroxypropan-2-yl)pyrimidin-5-yl)-2-methyl-1H-indazol-3(2H)-one]
1000 to 10000	CC(=O)N1CCN(c2ncc(-c3ccc4c(=O)n(C)n(Cc5cc(CC(C)O)ccc5OC(F)F)c4c3)cn2)C[C@H]1C (stereo partly drawn) [Example 114, 6-(2-((R)-4-Acetyl-3-methylpiperazin-1-yl)pyrimidin-5-yl)-1-(2-(difluoromethoxy)-5-(2-hydroxypropyl)benzyl)-2-methyl-1H-indazol-3(2H)-one]
< 1000	Cc1ccc(OC(F)F)c(Cn2c3cc(-c4cnc(C(C)(C)N)nc4)ccc3c(=O)n2C)c1 [Example 120, 6-(2-(2-Aminopropan-2-yl)pyrimidin-5-yl)-1-(2-(difluoromethoxy)-5-methylbenzyl)-2-methyl-1H-indazol-3(2H)-one]
1000 to 10000	Cn1c(=O)c2ccc(-c3cnc(C(C)(C)O)nc3)cc2n1Cc1cc(NCC(C)(C)O)ccc1Cl [Example 122, 1-(2-Chloro-5-((2-hydroxy-2-methylpropyl)amino)benzyl)-6-(2-(2-hydroxypropan-2-yl)pyrimidin-5-yl)-2-methyl-1H-indazol-3(2H)-one]
< 1000	Cc1ccc(OC(F)F)c(Cn2c3cc(-c4cnc(C(C)C)nc4)ccc3c(=O)n2C)c1 [Example 124, 1-(2-(Difluoromethoxy)-5-methylbenzyl)-6-(2-isopropylpyrimidin-5-yl)-2-methyl-1H-indazol-3(2H)-one]
1000 to 10000	Cn1c(=O)c2ccc(-c3cnc(C(C)(C)O)nc3)cc2n1Cc1cc(N2CCOCC2)ccc1OC(F)F [Example 125, 1-(2-(Difluoromethoxy)-5-morpholinobenzyl)-6-(2-(2-hydroxypropan-2-yl)pyrimidin-5-yl)-2-methyl-1H-indazol-3(2H)-one]
< 1000	C[C@@H]1CN(C(=O)CO)CCN1c1ncc(-c2cc3c(cc2F)c(=O)n(C)n3Cc2ccccc2OC(F)F)cn1 [Example 126, (R)-1-(2-(Difluoromethoxy)benzyl)-5-fluoro-6-(2-(4-(2-hydroxyacetyl)-2-methylpiperazin-1-yl)pyrimidin-5-yl)-2-methyl-1H-indazol-3(2H)-one]
< 1000	Cn1c(=O)c2ccc(-c3cnc(C(C)(C)O)nc3)cc2n1Cc1cn(Cc2cccnc2)cc1C(F)(F)F [Example #127]
1000 to 10000	Cn1c(=O)c2ccc(-c3cnc(C(C)(C)O)nc3)cc2n1Cc1cn(Cc2ccnnc2)cc1C(F)(F)F [Example #128, 6-(2-(2-Hydroxypropan-2-yl)pyrimidin-5-yl)-2-methyl-1-((1-(pyridazin-4-ylmethyl)-4-(trifluoromethyl)-1H-pyrrol-3-yl)methyl)-1H-indazol-3(2H)-one]
< 1000	COc1c[nH]nc1Cn1cc(Cn2c3cc(-c4cnc(C(C)(C)O)nc4)ccc3c(=O)n2C)c(C(F)(F)F)c1 [Example #130, 6-(2-(2-Hydroxypropan-2-yl)pyrimidin-5-yl)-1-((1-((4-methoxy-1H-pyrazol-3-yl)methyl)-4-(trifluoromethyl)-1H-pyrrol-3-yl)methyl)-2-methyl-1H-indazol-3(2H)-one]
< 1000	Cc1ccc(OC(F)F)c(Cn2c3cc(C4=CCC(C(C)O)OC4)c(F)cc3c(=O)n2C)c1 (centres unmarked) [Example #131, 1-(2-(Difluoromethoxy)-5-methylbenzyl)-5-fluoro-6-(6-(1-hydroxyethyl)-5,6-dihydro-2H-pyran-3-yl)-2-methyl-1H-indazol-3(2H)-one]
< 1000	Cc1ccc(OC(F)F)c(Cn2c3cc(C4=CCC(C(C)(C)O)OC4)c(F)cc3c(=O)n2C)c1 (centres unmarked) [Example #132, 1-(2-(Difluoromethoxy)-5-methylbenzyl)-5-fluoro-6-(6-(2-hydroxypropan-2-yl)-5,6-dihydro-2H-pyran-3-yl)-2-methyl-1H-indazol-3(2H)-one]
< 1000	Cn1c(=O)c2ccc(-c3cnc(C(C)(C)O)nc3)cc2n1Cc1cc(Cc2ccn[nH]2)ccc1OC(F)F [Example #133, 1-(5-((1H-Pyrazol-5-yl)methyl)-2-(difluoromethoxy)benzyl)-6-(2-(2-hydroxypropan-2-yl)pyrimidin-5-yl)-2-methyl-1H-indazol-3(2H)-one]
